Test results: paper PMC9928118, “Funneling modulatory peptide design with generative models: Discovery and characterization of disruptors of calcineurin protein-protein interactions” (PLOS Computational Biology, 2023)
Each block holds one sequence with its values, some of them ahead of it.

Tested on: GST-tagged Cn
Test: PEPperPRINT peptide microarray binding assay with GST-tagged Cn
Outline: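 Qualitative binding: peptides printed on a PEPperPRINT microarray were incubated overnight at 4 °C with 1 mg/ml GST-tagged Cn, then detected with Alexa-Fluor 647 anti-GST antibody. Log fluorescence was baseline-corrected, averaged over duplicate spots, Z-normalized and averaged across five repeats.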

[1] = GST-tagged Cn, max over the chip spots listed under Location on chip
[2] = GST-tagged Cn, mean over the chip spots listed under Location on chip
[3] = GST-tagged Cn, max over the chip locations
[4] = GST-tagged Cn, mean over the chip locations
[5] = max over the spots listed under Location on chip
[6] = mean over the spots listed under Location on chip
[7] = max over the chip locations listed for the peptide (two spots)
[8] = mean over the chip locations listed for the peptide (two spots)
[9] = GST-tagged Cn, max over the spots named in Location on chip
[10] = GST-tagged Cn, mean over the spots named in Location on chip
[11] = GST-tagged Cn, max over the spots on the chip (two locations)
[12] = GST-tagged Cn, mean over the spots on the chip (two locations)

Sequence: TGWTNPQFKLRLENDP [SeqRBM_4269]
Chip Fluorescence (max) [1]: 0.7861
Chip Fluorescence (mean) [2]: -0.005549

Sequence: TLWTNPQYHITLPEED [SeqRBM_3002]
Chip Fluorescence (max) [5]: 3.2575
Chip Fluorescence (mean) [6]: 0.9321

Sequence: TNSHNPQVDLKIPQVR [SeqRBMlowT_6893]
Chip Fluorescence (max) [7]: 5.271
Chip Fluorescence (mean) [8]: 0.9753

Sequence: TSPDQPCIDVHQSESE [SeqRBM_4309]
Chip Fluorescence (max) [5]: 2.7949
Chip Fluorescence (mean) [6]: 0.9383

Sequence: TSSSLPTFNFSSSVIT [SeqNUP153_Canis_lupus]
Chip Fluorescence (max) [11]: 0.9878
Chip Fluorescence (mean) [12]: -0.982

Sequence: TTAMNPQFFVQIPRTA [SeqCAPN11_Daphnia_magna_2]
Chip Fluorescence (max) [7]: 9.6825
Chip Fluorescence (mean) [8]: 0.161

Sequence: TTLVIPQMRLTSEATF [SeqRBM_1117]
Chip Fluorescence (max) [7]: 5.611
Chip Fluorescence (mean) [8]: 1.324

Sequence: TYWTNPQFRVTLEDPD [SeqRBMlowT_4395]
Chip Fluorescence (max) [5]: 3.405
Chip Fluorescence (mean) [6]: 0.7303

Sequence: VALVIRSTDKDDVGNY [SeqCEACAM5_Bactrocera_latifrons]
Chip Fluorescence (max) [5]: 3.268
Chip Fluorescence (mean) [6]: 1.368

Sequence: VETIRPGVVTEPMEAG [SeqRBM_4600]
Chip Fluorescence (max) [5]: 3.238
Chip Fluorescence (mean) [6]: 1.278

Sequence: VFWANPQFEVTLREDD [SeqRBM_5060]
Chip Fluorescence (max) [9]: 1.773
Chip Fluorescence (mean) [10]: 0.03485

Sequence: VHQCTPEVSVSVCFTC [SeqRBM_8420]
Chip Fluorescence (max) [3]: 0.0911
Chip Fluorescence (mean) [4]: -0.9088

Sequence: VKLVIIQVRSASVDAN [SeqRBM_6437]
Chip Fluorescence (max) [3]: -0.5934
Chip Fluorescence (mean) [4]: -1.618

Sequence: VNLPIPAVQLADSGAY [SeqRBM_1417]
Chip Fluorescence (max) [5]: 2.788
Chip Fluorescence (mean) [6]: 0.6718

Sequence: VQLFIHLPSSDDTGSY [SeqRBM_6875]
Chip Fluorescence (max) [11]: 1.006
Chip Fluorescence (mean) [12]: -4.049

Sequence: VQLKIPQLRVSSVSKP [SeqLCORL_2_Sus_scrofa]
Chip Fluorescence (max) [1]: 0.981
Chip Fluorescence (mean) [2]: -0.5484

Sequence: VRFTLPEKQVHSSAPS [SeqRBM_2315]
Chip Fluorescence (max) [1]: 0.7129
Chip Fluorescence (mean) [2]: -0.8346

Sequence: VSLKIPGSSAIDLTAS [SeqFLNA_Trichinella_nativa]
Chip Fluorescence (max) [3]: -0.0417
Chip Fluorescence (mean) [4]: -0.9527

Sequence: VSLYEDALGLGQFSLS [SeqRBM_4294]
Chip Fluorescence (max) [5]: 2.638
Chip Fluorescence (mean) [6]: 0.5735

Sequence: VSTDAPHSTRNDSGGP [SeqRBM_8532]
Chip Fluorescence (max) [11]: 0.9892
Chip Fluorescence (mean) [12]: -0.732

Sequence: VYWSNPQFIVKLEMVD [SeqRBM_6287]
Chip Fluorescence (max) [5]: 2.588
Chip Fluorescence (mean) [6]: 1.027

More lines, now with the values ahead:

Chip Fluorescence (max) [3]: 0.1716
Chip Fluorescence (mean) [4]: -0.4714
Sequence: THTKISSFRGDAEPAP [Seqshuffled_9494]

Chip Fluorescence (max) [1]: 0.887
Chip Fluorescence (mean) [2]: -0.1564
Sequence: THVEKVRFLIQPAGHP [Seqshuffled_9690]

Chip Fluorescence (max) [9]: 1.846
Chip Fluorescence (mean) [10]: 0.06645
Sequence: TPVSDHNFALDVSGKP [Seqshuffled_9616]

Chip Fluorescence (max) [11]: 1.2864
Chip Fluorescence (mean) [12]: -7.047
Sequence: TTSTNPQIRITDHEDE [Seqshuffled_9411]

Chip Fluorescence (max) [11]: 1.271
Chip Fluorescence (mean) [12]: 0.8684
Sequence: TTWLVVFMIPELMKLS [Seqshuffled_9855]

Chip Fluorescence (max) [1]: 0.9057
Chip Fluorescence (mean) [2]: -0.476
Sequence: VACITWAAMLIIFSMV [Seqrandom_9980]

Chip Fluorescence (max) [7]: 6.979
Chip Fluorescence (mean) [8]: 1.446
Sequence: VAQAFNVDGNCTQYWN [Seqrandom_9942]

Chip Fluorescence (max) [7]: 4.084
Chip Fluorescence (mean) [8]: 0.2161
Sequence: VDIATNDLISELCNLC [Seqrandom_9952]

Chip Fluorescence (max) [9]: 1.401
Chip Fluorescence (mean) [10]: -0.4076
Sequence: VEEAFPQIIISAEELP [SeqTRESK_Tarsius_syrichta]

Chip Fluorescence (max) [1]: 0.5427
Chip Fluorescence (mean) [2]: -0.6454
Sequence: VEYDKVWKVAQFVNKC [Seqrandom_9995]

Chip Fluorescence (max) [5]: 3.279
Chip Fluorescence (mean) [6]: -0.004599
Sequence: VFAQEDYFLFPVILKE [Seqrandom_9943]

Chip Fluorescence (max) [1]: 0.5967
Chip Fluorescence (mean) [2]: -0.4753
Sequence: VPDIGHMALHHDQIQP [Seqrandom_9983]

Chip Fluorescence (max) [5]: 2.722
Chip Fluorescence (mean) [6]: 1.008
Sequence: VVMHKMPKTGGWWHCP [Seqrandom_9963]

Chip Fluorescence (max) [7]: 3.486
Chip Fluorescence (mean) [8]: 0.3128
Sequence: WAGCDTWVFSIWRWIA [Seqrandom_10000]

Chip Fluorescence (max) [5]: 2.629
Chip Fluorescence (mean) [6]: -0.3443
Sequence: YFFDRDTGAGKIEQEH [Seqrandom_9991]

Chip Fluorescence (max) [3]: -0.3471
Chip Fluorescence (mean) [4]: -1.955
Sequence: YPPGTPTKQGQQMAPS [SeqRTS1_Aspergillus_carbonarius]

Chip Fluorescence (max) [5]: 3.109
Chip Fluorescence (mean) [6]: 0.4888
Sequence: YRDSWVTACQKIQSKI [Seqrandom_9988]
